In this assay the target is T1, human neutrophil elastase (HNE) (Homo sapiens, UniProt P08246).
T1 construct: gene ELANE
T1 sequence (P08246 30-247): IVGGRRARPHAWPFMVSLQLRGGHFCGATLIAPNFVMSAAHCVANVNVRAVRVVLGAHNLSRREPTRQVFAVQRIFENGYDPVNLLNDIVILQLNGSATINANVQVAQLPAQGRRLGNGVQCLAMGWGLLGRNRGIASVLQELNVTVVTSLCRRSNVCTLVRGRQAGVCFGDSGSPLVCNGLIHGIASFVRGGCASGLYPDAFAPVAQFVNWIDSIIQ
In words: chromogenic elastase assay (MeOSuc-AAPV-pNA, […] nm), dose-response. Type of assay: biochemical.

As to `O=C(/C=C/c1ccc(O)c(O)c1)O[C@@H]1C[C@](O)(C(=O)O)C[C@@H](O)[C@H]1O` [Cha, chlorogenic acid], the 50% inhibitory concentration (IC50) was 203 µM. Take `O=C(/C=C/c1ccc(O)c(O)c1)O[C@@H]1C[C@](O)(C(=O)O)C[C@@H](OC(=O)/C=C/c2ccc(O)c(O)c2)[C@H]1O` [Iso A, isochlorogenic acid A]: the midpoint of inhibition, the IC50, lay at 171 µM.

The record behind these values is PMC12250763, “Synergistic and Antagonistic Mechanisms of Arctium lappa L. Polyphenols on Human Neutrophil Elastase Inhibition: Insights from Molecular Docking and Enzymatic Kinetics” (Molecules, 2025).
